From ChEMBL document CHEMBL1759966, “Design and optimisation of orally active TLR7 agonists for the treatment of hepatitis C virus infection” (Bioorg Med Chem Lett, 2011)

Key:
[1] = Lipophilicity, log D of the compound; format: physicochemical; conditions: octanol/water
[2] = Half life in rat cytosol; format: ADME

Nc1nc(C(F)(F)F)cc2c1[nH]c(=O)n2Cc1ccccc1
logD [1]: 3.3

Cc1ccc(Cn2c(=O)[nH]c3c(N)nc(-n4nccn4)cc32)cn1
logD [1]: 1.6

Cc1ncc(Cn2c(=O)[nH]c3c(N)nc(C(F)(F)F)cc32)cn1
logD [1]: 1.6

Cc1cc(Cn2c(=O)[nH]c3c(N)nc(C(F)(F)F)cc32)no1
half-life [2]: > 16.7 h | logD [1]: 2.1

Cc1ccc(Cn2c(=O)[nH]c3c(N)nc(C(F)(F)F)cc32)nc1
half-life [2]: 1.38 h | logD [1]: 2.2

COCCCn1c(=O)[nH]c2c(N)nc(C(F)(F)F)cc21
logD [1]: 1.9

Cc1ccc(Cn2c(=O)[nH]c3c(N)nc(OCC4CCOC4)cc32)cn1 (centres undefined)
logD [1]: 1.8

Nc1nc(C(F)(F)F)cc2c1[nH]c(=O)n2CC1CCCOC1 (centres undefined)
logD [1]: 2

Cc1ccc(Cn2c(=O)[nH]c3c(N)nc(OCC4CCN(C)CC4)cc32)cn1
logD [1]: 0.2

Cc1nc(Cn2c(=O)[nH]c3c(N)nc(C(F)(F)F)cc32)cs1
half-life [2]: > 16.7 h | logD [1]: 2.3

Cc1cnc(Cn2c(=O)[nH]c3c(N)nc(C(F)(F)F)cc32)cn1
logD [1]: 1.8

COCCCOc1cc2c([nH]c(=O)n2Cc2ccc(C)nc2)c(N)n1
logD [1]: 1.8

Cc1nc(Cn2c(=O)[nH]c3c(N)nc(C(F)(F)F)cc32)co1
half-life [2]: > 16.7 h | logD [1]: 1.7

Cc1ccc(Cn2c(=O)[nH]c3c(N)nc(-c4nc(C)co4)cc32)cn1
half-life [2]: > 16.7 h | logD [1]: 2.1
